Measured values: US12637440B2, “Amide derivative useful as diacylglycerol acyltransferase 2 inhibitor, and use thereof” (LG CHEM, LTD., priority 2019, dated 2026)

Biological target: T1, Recombinant human DGAT2 protein (Homo sapiens, UniProt Q96PD7)
T1 construct: FLAG (DYKDDDDK); (N); made in house; host or cells: Sf-21 insect cells (BacPAK baculovirus system); used as a membrane preparation
T1 sequence (Q96PD7 1-388): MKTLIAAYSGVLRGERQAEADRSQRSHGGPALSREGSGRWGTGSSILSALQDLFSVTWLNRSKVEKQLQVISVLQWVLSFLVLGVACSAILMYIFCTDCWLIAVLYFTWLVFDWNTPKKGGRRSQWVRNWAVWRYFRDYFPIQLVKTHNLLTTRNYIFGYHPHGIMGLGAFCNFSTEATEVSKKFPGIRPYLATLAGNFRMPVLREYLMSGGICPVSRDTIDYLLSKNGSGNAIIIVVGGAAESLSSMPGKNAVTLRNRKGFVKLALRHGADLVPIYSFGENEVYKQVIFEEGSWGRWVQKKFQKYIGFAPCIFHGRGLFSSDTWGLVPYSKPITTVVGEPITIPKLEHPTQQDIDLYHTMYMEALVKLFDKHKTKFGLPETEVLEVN
Assay: Measurement of inhibitory effect against DGAT2 enzyme activity (SPA, Phospholipid FlashPlate, [14C]-TG production)
Format: biochemical
Details: concentration inhibiting [14C]-labeled triacyl glycerol (TG) production by 50%; 2 μg DGAT2-membrane protein from Sf-21 cells, 37° C.
Summary of the method: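 Membranes from Sf-21 cells expressing human DGAT2 (2 μg) preincubated 20 min at 37 °C with compound (3 nM–10 μM, 1% DMSO) in HEPES/MgCl2/BSA with 50 μM 1,2-dioleoyl glycerol, then 1 μM [14C]oleoyl-CoA for 15 min. [14C]-TG measured by SPA FlashPlate; inhibition as % of untreated control.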

Row | SMILES | IC50 [nM]
1 | CCOc1cccnc1O[C@@H]1CCCN(c2cncc(NC(=O)Cc3ccc(CC(C)(C)C(=O)O)cc3)n2)C1 [Example 116, (R)-3-(4-(2-((6-(3-((3-ethoxypyridin-2-yl)oxy)piperidin-1-yl)pyrazin-2-yl)amino)-2-oxoethyl)phenyl)-2,2-dimethylpropanoic acid] | 38
2 | CCOc1ccccc1O[C@@H]1CCCN(c2cncc(NC(=O)CCC34CCC(C(=O)O)(CC3)CC4)n2)C1 [Example 117, (R)-4-(3-((6-(3-(2-ethoxyphenoxy)piperidin-1-yl)pyrazin-2-yl)amino)-3-oxopropyl)bicyclo[2.2.2]octane-1-carboxylic acid] | 140
3 | CCOc1ccccc1O[C@@H]1CCCN(c2cncc(NC(=O)CC34CCC(C(=O)O)(CC3)CC4)n2)C1 [Example 118, (R)-4-(2-((6-(3-(2-ethoxyphenoxy)piperidin-1-yl)pyrazin-2-yl)amino)-2-oxoethyl)bicyclo[2.2.2]octane-1-carboxylic acid] | 170
4 | CCOc1cccnc1O[C@@H]1CCCN(c2cncc(NC(=O)CCC34CCC(C(=O)O)(CC3)CC4)n2)C1 [Example 120, (R)-4-(3-((6-(3-((3-ethoxypyridin-2-yl)oxy)piperidin-1-yl)pyrazin-2-yl)amino)-3-oxopropyl)bicyclo[2.2.2]octane-1-carboxylic acid] | 250
5 | CCOc1ccccc1O[C@@H]1CCCN(c2cncc(NC(=O)/C=C/C34CCC(C(=O)O)(CC3)CC4)n2)C1 [Example 121, (R,E)-4-(3-((6-(3-(2-ethoxyphenoxy)piperidin-1-yl)pyrazin-2-yl)amino)-3-oxoprop-1-en-1-yl)bicyclo[2.2.2]octane-1-carboxylic acid] | 98
6 | CCOc1ccccc1O[C@@H]1CCCN(c2nccc(NC(=O)CCc3ccc(C(C)(C)C(=O)O)cc3)n2)C1 [Example 122, (R)-2-(4-(3-((2-(3-(2-ethoxyphenoxy)piperidin-1-yl)pyrimidin-4-yl)amino)-3-oxopropyl)phenyl)-2-methylpropanoic acid] | 60
7 | CCOc1cccnc1O[C@@H]1CCCN(c2cncc(NC(=O)CCc3ccc(C(C)(C)C(=O)O)cc3)n2)C1 [Example 123, (R)-2-(4-(3-((6-(3-((3-ethoxypyridin-2-yl)oxy)piperidin-1-yl)pyrazin-2-yl)amino)-3-oxopropyl)phenyl)-2-methylpropanoic acid] | 35
8 | CCOc1ccccc1O[C@@H]1CCCN(c2nccc(NC(=O)C(C)(C)c3ccc(CC(C)(C)C(=O)O)cc3)n2)C1 [Example 124, (R)-3-(4-(1-((2-(3-(2-ethoxyphenoxy)piperidin-1-yl)pyrimidin-4-yl)amino)-2-methyl-1-oxopropan-2-yl)phenyl)-2,2-dimethylpropanoic acid] | 330
9 | CCOc1cccnc1O[C@@H]1CCCN(c2cncc(NC(=O)C(C)(C)c3ccc(CC(C)(C)C(=O)O)cc3)n2)C1 [Example 125, (R)-3-(4-(1-((6-(3-((3-ethoxypyridin-2-yl)oxy)piperidin-1-yl)pyrazin-2-yl)amino)-2-methyl-1-oxopropan-2-yl)phenyl)-2,2-dimethylpropanoic acid] | 35
10 | CC(C)(Cc1ccc(C(C)(C)C(=O)Nc2cncc(N3CCC[C@@H](Oc4ccccc4OC4CCC4)C3)n2)cc1)C(=O)O [Example 126, (R)-3-(4-(1-((6-(3-(2-cyclobutoxyphenoxy)piperidin-1-yl)pyrazin-2-yl)amino)-2-methyl-1-oxopropan-2-yl)phenyl)-2,2-dimethylpropanoic acid] | 3800
11 | CCOc1ccccc1O[C@@H]1CCCN(c2cncc(NC(=O)CCc3cccc(CC(C)(C)C(=O)O)c3)n2)C1 [Example 127, (R)-3-(3-(3-((6-(3-(2-ethoxyphenoxy)piperidin-1-yl)pyrazin-2-yl)amino)-3-oxopropyl)phenyl)-2,2-dimethylpropanoic acid] | 83
12 | CCOc1cccnc1O[C@@H]1CCCN(c2cncc(NC(=O)CCc3cccc(CC(C)(C)C(=O)O)c3)n2)C1 [Example 128, (R)-3-(3-(3-((6-(3-((3-ethoxypyridin-2-yl)oxy)piperidin-1-yl)pyrazin-2-yl)amino)-3-oxopropyl)phenyl)-2,2-dimethylpropanoic acid] | 100
13 | CCOc1ccccc1O[C@@H]1CCCN(c2cncc(NC(=O)c3cccc(-c4cccc(CC(C)(C)C(=O)O)c4)c3)n2)C1 [Example 129, (R)-3-(3′-((6-(3-(2-ethoxyphenoxy)piperidin-1-yl)pyrazin-2-yl)carbamoyl)-[1,1′-biphenyl]-3-yl)-2,2-dimethylpropanoic acid] | 540
14 | CCOc1ccccc1O[C@@H]1CCCN(c2cncc(NC(=O)c3cccc(-c4ccc(CC(C)(C)C(=O)O)cc4)c3)n2)C1 [Example 130, (R)-3-(3′-((6-(3-(2-ethoxyphenoxy)piperidin-1-yl)pyrazin-2-yl)carbamoyl)-[1,1′-biphenyl]-4-yl)-2,2-dimethylpropanoic acid] | 380
